Counter-ions that a name gives are not always drawn.
SMILES	melting point
CC(C)NC(=O)c1c(CN2CCN(C(C)C)CC2)c(-c2ccccc2)nc2ccccc12 (as salt: HCl) [Example 3, 3-(4-Isopropyl-piperazin-1-ylmethyl)-2-phenyl-quinoline-4-carboxylic acid isopropylamide]	198 to 200 °C
CCC(CC)NC(=O)c1c(CN2CCN(C(C)C)CC2)c(-c2ccccc2)nc2ccccc12 (as salt: HCl) [Example 4, 3-(4-Isopropyl-piperazin-1-ylmethyl)-2-phenyl-quinoline-4-carboxylic acid (1-ethyl-propyl)-amide]	235 to 238 °C
CC(C)CNC(=O)c1c(CN2CCN(C(C)C)CC2)c(-c2ccccc2)nc2ccccc12 [Example 2, 3-(4-Isopropyl-piperazin-1-ylmethyl)-2-phenyl-quinoline-4-carboxylic acid isobutyl-amide]	215 to 217 °C
O=C(N[C@H]1CCCc2ccccc21)c1c(CN2CCC(N3CCC(O)CC3)CC2)c(-c2ccccc2)nc2ccccc12 [Example 5, 3-(4-Hydroxy-[1,4′]bipiperidinyl-1′-ylmethyl)-2-phenyl-quinoline-4-carboxylic acid ((S)-1,2,3,4-tetrahydro-naphthalen-1-yl)-amide]	144 to 146 °C
O=C(N[C@H]1CCc2ccccc21)c1c(CN2CCC(N3CCC(O)CC3)CC2)c(-c2ccccc2)nc2ccccc12 [Example 6, 3-(4-Hydroxy-[1,4′]bipiperidinyl-1′-ylmethyl)-2-phenyl-quinoline-4-carboxylic acid (S)-indan-1-ylamide]	98 to 100 °C
C[C@H](NC(=O)c1c(CN2CCOCC2)c(-c2ccccc2)nc2ccccc12)C(C)(C)C [Example 7, 3-Morpholin-4-ylmethyl-2-phenyl-quinoline-4-carboxylic acid ((S)-1,2,2-trimethyl-propyl)-amide]	207 to 209 °C
O=C(NC1C2CC3CC(C2)CC1C3)c1c(CN2CCC(N3CCCCC3)CC2)c(-c2ccccc2)nc2ccccc12 (centres unmarked) [Example 10, 3-[1,4′]Bipiperidinyl-1′-ylmethyl-2-phenyl-quinoline-4-carboxylic acid adamantan-2-ylamide]	219 to 220 °C
CC(C)N1CCN(Cc2c(-c3ccccc3)nc3ccccc3c2C(=O)NC2CCCCC2)CC1 [Example 11, 3-(4-Isopropyl-piperazin-1-ylmethyl)-2-phenyl-quinoline-4-carboxylic acid cyclohexylamide]	161 to 163 °C
